According to paper PMC12196486, “Search for Antiviral Preparations in Series of New Derivatives of N-Substituted Piperidines” (Molecules, 2025):
Converted amounts (≈) assume the structure as drawn. “Also recorded” adds a separate entry of the source. Where a name gives a salt, the structure may show the parent alone. Read-outs that look alike come from different tables or passages of the source.

Legend:
[1] = tested on: influenza A/Swine/Iowa/30 (H1N1) virus; format: cell-based; details: for Antiviral activity relative to oseltamivir (Tamiflu): concentrations corresponding to 1/2 of CC50; for Efficacy relative to commercially available oseltamivir: at similar or lower concentrations
[2] = Cytotoxicity in vitro, MTT test on MDCK cell culture; details: dog
in vitro = details: dog

## CCCN1CCC(O)(C(=O)O)CC1 [3b, Hydrochloride of 1-propyl-4-carboxy-4-hydroxypiperidine]
[1]; 0.15 mg/mL, PC titre 5.0 ± 0
  Titre in HAU: 5.0 ± 0 log2
[1]; 0.30 mg/mL, PC titre 5.0 ± 0
  Titre in HAU: 5.0 ± 0 log2
[1]; 0.59 mg/mL, PC titre 5.0 ± 0
  Titre in HAU: 5.0 ± 0 log2
[1]; 1.19 mg/mL, PC titre 5.0 ± 0
  Titre in HAU: 5.0 ± 0 log2
[1]; 2.38 mg/mL, PC titre 5.0 ± 0
  Titre in HAU: 4.4 ± 0.6 log2
[1]; 4.75 mg/mL (maximum tested concentration)
  Reduction of virus replication: 1.0 log2
[1]; 4.75 mg/mL, PC titre 5.0 ± 0
  Titre in HAU: 4.0 ± 0 log2
[1]
  Antiviral activity relative to oseltamivir (Tamiflu): slightly inferior; also recorded: significantly lower antiviral activity
[2]
  CC50 at 72 h: 9500 ± 364 µg/mL

## O=C(OC1(C(=O)O)CCN(Cc2ccccc2)CC1)C1CC1 [5c, Hydrochloride of 1-benzyl-4-cyclopropanoyloxy-piperidine-4-carboxylic acid]
[1]; 0.058 mg/mL, PC titre 5.0 ± 0
  Titre in HAU: 5.0 ± 0 log2
[1]; 0.116 mg/mL, PC titre 5.0 ± 0
  Titre in HAU: 5.0 ± 0 log2
[1]; 0.231 mg/mL, PC titre 5.0 ± 0
  Titre in HAU: 5.0 ± 0 log2
[1]; 0.463 mg/mL, PC titre 5.0 ± 0
  Titre in HAU: 5.0 ± 0 log2
[1]; 0.925 mg/mL, PC titre 5.0 ± 0
  Titre in HAU: 4.4 ± 0.6 log2
[1]; 1.85 mg/mL (maximum investigated concentration)
  Suppression of virus replication compared to the control group: 1.2 log2
[1]; 1.850 mg/mL, PC titre 5.0 ± 0
  Titre in HAU: 3.8 ± 1.1 log2
[1]; concentrations below 1.85 mg/mL
  Antiviral effect at the other concentrations tested: No statistically significant antiviral effect
[1]; concentrations equivalent to 1/2 CC50
  Level of antiviral activity relative to rimantadine: comparable to that of rimantadine
[2]
  CC50 at 72 h: 3700 ± 189 µg/mL

## O=C(OC1(C(=O)O)CCN(CCc2ccccc2)CC1)C1CC1 [5d, Hydrochloride of 1-(2-phenylethyl)-4-cyclopropanoyloxy-piperidine-4-carboxylic acid]
[1]; 0.0025 mg/mL, PC titre 6.0 ± 0
  Titre in HAU: 6.0 ± 0 log2
[1]; 0.0050 mg/mL, PC titre 6.0 ± 0
  Titre in HAU: 6.0 ± 0 log2
[1]; 0.0100 mg/mL, PC titre 6.0 ± 0
  Titre in HAU: 6.0 ± 0 log2
[1]; 0.0200 mg/mL, PC titre 6.0 ± 0
  Titre in HAU: 6.0 ± 0 log2
[1]; 0.04 mg/mL
  Reduction of virus replication: 1.2 log2
[1]; 0.0400 mg/mL, PC titre 6.0 ± 0
  Titre in HAU: 4.8 ± 0.5 log2
[1]; 0.08 mg/mL
  Reduction of virus replication: 2.0 log2
[1]; 0.0800 mg/mL, PC titre 6.0 ± 0
  Titre in HAU: 4.0 ± 0 log2
[1]
  Antiviral activity relative to oseltamivir (Tamiflu): slightly inferior
[2]
  CC50 at 72 h: 160 ± 6 µg/mL

## CC(N)C12CC3CC(CC(C3)C1)C2 (stereo not shown) [Rimantadine, reference compound]
[1]; 0.003 mg/mL, PC titre 6.0 ± 0
  Titre in HAU: 4.2 ± 0.4 log2
[1]; 0.005 mg/mL, PC titre 6.0 ± 0
  Titre in HAU: 4.2 ± 0.4 log2
[1]; 0.010 mg/mL, PC titre 6.0 ± 0
  Titre in HAU: 4.2 ± 0.4 log2
[1]; 0.020 mg/mL, PC titre 6.0 ± 0
  Titre in HAU: 4.2 ± 0.4 log2
[1]; 0.040 mg/mL, PC titre 6.0 ± 0
  Titre in HAU: 4.2 ± 0.4 log2
[1]; 0.080 mg/mL, PC titre 6.0 ± 0
  Titre in HAU: 4.2 ± 0.4 log2
In vitro
  CC50 at 72 h: 160 ± 11 µg/mL (≈ 892 µM)

## CCOC(=O)C1=C[C@@H](OC(CC)CC)[C@H](NC(C)=O)[C@@H](N)C1 [Tamiflu, oseltamivir, reference compound]
[1]; 0.01 mg/mL, PC titre 5.0 ± 0
  Titre in HAU: 4.0 ± 0 log2
[1]; 0.02 mg/mL, PC titre 5.0 ± 0
  Titre in HAU: 4.0 ± 0 log2
[1]; 0.04 mg/mL, PC titre 5.0 ± 0
  Titre in HAU: 3.0 ± 0 log2
[1]; 0.08 mg/mL, PC titre 5.0 ± 0
  Titre in HAU: 3.0 ± 0 log2
[1]; 0.17 mg/mL, PC titre 5.0 ± 0
  Titre in HAU: 2.4 ± 0.5 log2
[1]; 0.33 mg/mL, PC titre 5.0 ± 0
  Titre in HAU: 2.4 ± 0.5 log2
[1]; 0.02 and 0.01 mg/mL
  Reduction of viral load: 1.0 log2
[1]; 0.08 and 0.04 mg/mL
  Reduction of viral load: 2.0 log2
[1]; 0.33 and 0.17 mg/mL
  Reduction in the reproduction of 100 infectious doses of the virus: 2.6 log2
[2]
  CC50 at 72 h: 660 ± 91 µg/mL (≈ 2110 µM)

## O=C(OC1CCN(Cc2ccccc2)CC1)c1ccc(C(F)(F)F)cc1 [compound 8, Hydrochloride of 1-benzyl-4-trifluoromethylbenzoyloxy-piperidine]
[1]; 0.0011 mg/mL, PC titre 6.0 ± 0
  Titre in HAU: 6.0 ± 0 log2
[1]; 0.0022 mg/mL, PC titre 6.0 ± 0
  Titre in HAU: 6.0 ± 0 log2
[1]; 0.0044 mg/mL, PC titre 6.0 ± 0
  Titre in HAU: 6.0 ± 0 log2
[1]; 0.0088 mg/mL, PC titre 6.0 ± 0
  Titre in HAU: 5.0 ± 0 log2
[1]; 0.0175 mg/mL, PC titre 6.0 ± 0
  Titre in HAU: 5.0 ± 0 log2
[1]; 0.035 mg/mL
  Reduction of viral load: 2.0 log2
[1]; 0.0350 mg/mL, PC titre 6.0 ± 0
  Titre in HAU: 4.0 ± 0 log2
[1]; 0.0175 and 0.0088 mg/mL
  Reduction of viral load: 1.0 log2
[1]
  Efficacy relative to commercially available oseltamivir: comparable efficacy
  Antiviral activity relative to oseltamivir (Tamiflu): slightly inferior
[2]
  CC50 at 72 h: 70 ± 5 µg/mL

## O=C(ON=C1CCN(Cc2ccccc2)CC1)c1c(F)cccc1F [compound 11, Hydrochloride of 1-benzyl-4-(2,6-difluoro-benzoyloxymino) piperidine]
[1]; 0.0020 mg/mL, PC titre 6.0 ± 0
  Titre in HAU: 6.0 ± 0 log2
[1]; 0.0041 mg/mL, PC titre 6.0 ± 0
  Titre in HAU: 6.0 ± 0 log2
[1]; 0.0081 mg/mL, PC titre 6.0 ± 0
  Titre in HAU: 6.0 ± 0 log2
[1]; 0.0163 mg/mL, PC titre 6.0 ± 0
  Titre in HAU: 6.0 ± 0 log2
[1]; 0.0325 mg/mL, PC titre 6.0 ± 0
  Titre in HAU: 4.0 ± 0 log2
[1]; 0.0650 mg/mL, PC titre 6.0 ± 0
  Titre in HAU: 4.0 ± 0 log2
[1]; 0.0650 and 0.0325 mg/mL
  Inhibition of replication of 100 infectious doses compared to the control group: 2.0 log2
[1]
  Efficacy relative to commercially available oseltamivir: comparable efficacy
  Antiviral activity relative to oseltamivir (Tamiflu): slightly inferior
[2]
  CC50 at 72 h: 130 ± 2 µg/mL
